In ChEMBL document CHEMBL2074009, “Possible involvement of P-glycoprotein in biliary excretion of CPT-11 in rats” (Drug Metab Dispos, 1999):

Biological target: Multidrug resistance protein 1a (Rattus norvegicus) (UniProt Q6PSM0)
Assay: TP_TRANSPORTER: uptake (high affinity, inhibited by PSC-833, Verapamil and Cyclosporin A) in bile canalicular membrane vesicles from SD rat
Assay type: functional, cell membranes
Conditions: Sprague-Dawley, Bile canalicular membrane vesicle

Chain of Multidrug resistance protein 1a (Rattus norvegicus) (Q6PSM0 as listed by the source): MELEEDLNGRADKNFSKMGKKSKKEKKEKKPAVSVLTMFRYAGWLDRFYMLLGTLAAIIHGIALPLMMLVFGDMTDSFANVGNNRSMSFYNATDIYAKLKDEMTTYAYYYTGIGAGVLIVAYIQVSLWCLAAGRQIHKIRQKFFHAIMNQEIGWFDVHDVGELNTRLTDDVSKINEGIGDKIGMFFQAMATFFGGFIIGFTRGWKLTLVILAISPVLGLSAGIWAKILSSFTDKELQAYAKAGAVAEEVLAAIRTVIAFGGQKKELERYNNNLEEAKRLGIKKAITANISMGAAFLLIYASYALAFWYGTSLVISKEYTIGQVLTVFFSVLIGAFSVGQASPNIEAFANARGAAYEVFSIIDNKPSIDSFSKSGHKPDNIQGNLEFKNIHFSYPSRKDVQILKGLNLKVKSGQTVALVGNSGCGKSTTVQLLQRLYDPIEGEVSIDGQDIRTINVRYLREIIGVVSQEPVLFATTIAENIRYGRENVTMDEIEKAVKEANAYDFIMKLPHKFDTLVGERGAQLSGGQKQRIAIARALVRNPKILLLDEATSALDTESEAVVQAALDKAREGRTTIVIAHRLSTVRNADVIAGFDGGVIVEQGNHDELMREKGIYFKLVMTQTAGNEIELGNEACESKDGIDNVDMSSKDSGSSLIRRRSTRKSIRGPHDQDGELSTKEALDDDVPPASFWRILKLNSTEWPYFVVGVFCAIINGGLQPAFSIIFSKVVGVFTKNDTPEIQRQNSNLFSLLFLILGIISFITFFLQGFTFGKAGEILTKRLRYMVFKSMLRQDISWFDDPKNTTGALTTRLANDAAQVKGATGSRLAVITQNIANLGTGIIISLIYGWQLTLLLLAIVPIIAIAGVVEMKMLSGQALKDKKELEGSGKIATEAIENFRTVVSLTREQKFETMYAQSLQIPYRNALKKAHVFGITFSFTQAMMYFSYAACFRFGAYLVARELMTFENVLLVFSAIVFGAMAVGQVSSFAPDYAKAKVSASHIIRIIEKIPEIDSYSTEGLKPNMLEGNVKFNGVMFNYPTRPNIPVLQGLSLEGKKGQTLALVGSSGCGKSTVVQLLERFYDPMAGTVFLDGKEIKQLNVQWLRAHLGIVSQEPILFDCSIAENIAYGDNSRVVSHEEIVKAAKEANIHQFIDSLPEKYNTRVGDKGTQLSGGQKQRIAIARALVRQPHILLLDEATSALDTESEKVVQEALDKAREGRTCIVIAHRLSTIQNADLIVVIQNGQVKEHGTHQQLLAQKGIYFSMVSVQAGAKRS

CCc1c2c(nc3ccc(OC(=O)N4CCC(N5CCCCC5)CC4)cc13)-c1cc([C@@](O)(CC)C(=O)O)c(CO)c(=O)n1C2
Activity: substrate [+]
